Test results: BindingDB's records for doi:10.1021/jm00044a007 (Research Triangle Institute, 1994)

Biological target: Sodium-dependent dopamine transporter (Rattus norvegicus, UniProt P23977)
Test: Concentration required to inhibit 50% of radioligand binding ([3H]WIN-35428) to the dopamine (DA) transporter in rat

Sequence of Sodium-dependent dopamine transporter (P23977 whole entry): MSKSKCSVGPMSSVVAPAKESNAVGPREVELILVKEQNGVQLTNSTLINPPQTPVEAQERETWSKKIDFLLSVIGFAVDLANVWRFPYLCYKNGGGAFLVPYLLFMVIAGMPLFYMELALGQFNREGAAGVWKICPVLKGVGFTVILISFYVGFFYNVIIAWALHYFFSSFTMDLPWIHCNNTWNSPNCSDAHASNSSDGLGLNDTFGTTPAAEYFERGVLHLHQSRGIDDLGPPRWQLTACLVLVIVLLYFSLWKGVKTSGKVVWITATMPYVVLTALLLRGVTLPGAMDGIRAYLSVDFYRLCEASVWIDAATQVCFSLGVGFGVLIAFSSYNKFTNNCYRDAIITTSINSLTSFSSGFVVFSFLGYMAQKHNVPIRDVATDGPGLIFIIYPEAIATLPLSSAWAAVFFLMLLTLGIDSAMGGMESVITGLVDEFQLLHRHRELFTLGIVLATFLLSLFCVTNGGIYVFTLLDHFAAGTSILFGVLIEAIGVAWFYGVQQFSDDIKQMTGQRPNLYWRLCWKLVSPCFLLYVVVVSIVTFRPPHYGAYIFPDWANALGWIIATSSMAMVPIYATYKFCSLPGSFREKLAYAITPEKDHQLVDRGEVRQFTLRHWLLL

`COC(=O)C1C2CCC(C[C@@H]1c1cc[c]([Sn]([CH3])([CH3])[CH3])cc1)N2C` (stereo partly drawn) [(3S,8R)-8-Methyl-3-(4-trimethylstannanyl-phenyl)-8-aza-bicyclo[3.2.1]octane-2-carboxylic acid methyl ester] gave an IC50 of 144 nM.
